Test results taken from ChEMBL document CHEMBL1201862, “PubChem BioAssay data set” (2004).
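48-hour exposure; five concentrations; linearly interpolated endpoints. Here, GI50 denotes the concentration required for 50% inhibition of growth.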 Calls of active or inactive are those of the source. Rule as the data show it: active = GI50 up to about 1.1 µM and inactive = higher.

Legend:
Experiment in all cases: NCI-60 cell line screen, 48 h
[1] = test system: LOX IMVI
[2] = test system: KM12
[3] = test system: Hs-578T
[4] = test system: MCF7
[5] = test system: BT-549
[6] = test system: SNB-19
[7] = test system: OVCAR-8
[8] = test system: HL-60
[9] = test system: NCI-H522
[10] = test system: U-251
[11] = test system: 786-0
[12] = test system: UO-31
[13] = test system: EKVX
[14] = test system: HCT-116
[15] = test system: NCI-H23
[16] = test system: COLO 205
[17] = test system: NCI/ADR-RES
[18] = test system: OVCAR-4
[19] = test system: M14

Compound	GI50 [1]	GI50 [2]	GI50 [3]	GI50 [4]	GI50 [5]	GI50 [6]	GI50 [7]	GI50 [8]	GI50 [9]	GI50 [10]	GI50 [11]	GI50 [12]	GI50 [13]	GI50 [14]	GI50 [15]	GI50 [16]	GI50 [17]	GI50 [18]	GI50 [19]
CCCCCCCCCCCCCCCCCCOCC(O)COP(=O)(O)OCC1OC(n2cc(F)c(=O)[nH]c2=O)CC1O (stereo unspecified)	0.658 µM (active)	14.5 µM (inactive)	14.3 µM (inactive)	0.492 µM (active)	13.7 µM (inactive)	10.3 µM (inactive)	1.64 µM (inactive)	6.56 µM (inactive)	11.9 µM (inactive)	1.75 µM (inactive)	1.22 µM (inactive)	1.16 µM (inactive)	37 µM (inactive)	1.29 µM (inactive)	2.97 µM (inactive)	5.15 µM (inactive)	2.05 µM (inactive)	15.1 µM (inactive)	2.96 µM (inactive)
CC/C=C\C/C=C\C/C=C\CCCCCCCC(=O)OC(COC(=O)CCCCCCCCCCCCCCCCC)COC1OC(CO)C(O)C(O)C1O (stereo unspecified)	> 25 µM (inactive)	> 25 µM (inactive)	2.59 µM (inactive)	> 25 µM (inactive)	> 25 µM (inactive)	> 25 µM (inactive)	15.9 µM (inactive)	> 25 µM (inactive)	9.53 µM (inactive)	> 25 µM (inactive)	> 25 µM (inactive)	> 25 µM (inactive)	4.7 µM (inactive)	> 25 µM (inactive)	> 25 µM (inactive)	> 25 µM (inactive)	23.6 µM (inactive)	> 25 µM (inactive)	> 25 µM (inactive)
CCCCCC1CC=CC(=O)O1 (stereo unspecified)	7.62 µM (inactive)	4.39 µM (inactive)	18 µM (inactive)	6.52 µM (inactive)	12.3 µM (inactive)	10.5 µM (inactive)	5.97 µM (inactive)	4.93 µM (inactive)	2.92 µM (inactive)	3.56 µM (inactive)	3.85 µM (inactive)	8.89 µM (inactive)	3.24 µM (inactive)	2.04 µM (inactive)	5.69 µM (inactive)	4.06 µM (inactive)	5.73 µM (inactive)	1.18 µM (inactive)	12 µM (inactive)
CN1CCN(CCCCN2c3ccccc3Sc3cc(N=[N+]=[N-])ccc32)CC1	1.62 µM (inactive)	1.84 µM (inactive)	1.95 µM (inactive)	1.99 µM (inactive)	7.76 µM (inactive)	3.62 µM (inactive)	1.82 µM (inactive)	2.26 µM (inactive)	1.7 µM (inactive)	2.73 µM (inactive)	1.62 µM (inactive)	0.586 µM (active)	5.69 µM (inactive)	1.62 µM (inactive)	6.31 µM (inactive)	1.74 µM (inactive)	2.59 µM (inactive)	2.88 µM (inactive)	1.72 µM (inactive)
O=S(=O)(O)CCCc1cccc2ccccc12	> 100 µM (inactive)	> 100 µM (inactive)	> 100 µM (inactive)	> 100 µM (inactive)	> 100 µM (inactive)	> 100 µM (inactive)	> 100 µM (inactive)	31.3 µM (inactive)	> 100 µM (inactive)	> 100 µM (inactive)	> 100 µM (inactive)	> 100 µM (inactive)	> 100 µM (inactive)	> 100 µM (inactive)	> 100 µM (inactive)	> 100 µM (inactive)	> 100 µM (inactive)	> 100 µM (inactive)	> 100 µM (inactive)
CC(C)OC(=O)c1ccc(NCC2=CC(=O)C=CC2=O)cc1Cl	10.5 µM (inactive)	13.5 µM (inactive)	23.3 µM (inactive)	14.9 µM (inactive)	2.62 µM (inactive)	6.11 µM (inactive)	5.68 µM (inactive)	0.904 µM (active)	1.02 µM (active)	16.9 µM (inactive)	14.1 µM (inactive)	3.29 µM (inactive)	15.4 µM (inactive)	19.3 µM (inactive)	13.2 µM (inactive)	4.07 µM (inactive)	7.93 µM (inactive)	12.7 µM (inactive)	27.8 µM (inactive)
Fc1cccc2nc(-c3ccccc3)cc(OCc3ccccc3)c12	> 100 µM (inactive)	> 100 µM (inactive)	> 100 µM (inactive)	59.7 µM (inactive)	> 100 µM (inactive)	> 100 µM (inactive)	> 100 µM (inactive)	> 100 µM (inactive)	71.8 µM (inactive)	> 100 µM (inactive)	> 100 µM (inactive)	> 100 µM (inactive)	20.8 µM (inactive)	> 100 µM (inactive)	> 100 µM (inactive)	> 100 µM (inactive)	> 100 µM (inactive)	> 100 µM (inactive)	> 100 µM (inactive)
CC1(C)CC[C@]2(C(=O)O)CC[C@]3(C)C(=CC[C@@H]4[C@@]5(C)CC[C@H](OC6OC(CO)C(O)C(O)C6OC6OC(CO)C(O)C(O)C6O)C(C)(C)[C@@H]5CC[C@]43C)[C@@H]2C1 (stereo partly specified)	28.2 µM (inactive)	15.5 µM (inactive)	24.2 µM (inactive)	19.6 µM (inactive)	19.5 µM (inactive)	18.3 µM (inactive)	19.4 µM (inactive)	21.9 µM (inactive)	20.6 µM (inactive)	2.38 µM (inactive)	16.6 µM (inactive)	20.6 µM (inactive)	18.5 µM (inactive)	17.1 µM (inactive)	24.9 µM (inactive)	15.4 µM (inactive)	21.2 µM (inactive)	16.8 µM (inactive)	16.2 µM (inactive)
CC(C)(C)c1cc(C(=O)/C=C/c2cc[nH]n2)cc(C(C)(C)C)c1O	1.85 µM (inactive)	2.29 µM (inactive)	2.57 µM (inactive)	1.36 µM (inactive)	4.83 µM (inactive)	3.87 µM (inactive)	2.39 µM (inactive)	2.23 µM (inactive)	1.43 µM (inactive)	1.73 µM (inactive)	1.58 µM (inactive)	1.76 µM (inactive)	13.4 µM (inactive)	2.43 µM (inactive)	2.78 µM (inactive)	2.07 µM (inactive)	4.62 µM (inactive)	6.4 µM (inactive)	1.82 µM (inactive)
CCn1c2ccccc2n2c(=O)c3c(c(C#N)c12)CCCC3	> 100 µM (inactive)	> 100 µM (inactive)	> 100 µM (inactive)	> 100 µM (inactive)	> 100 µM (inactive)	> 100 µM (inactive)	> 100 µM (inactive)	> 100 µM (inactive)	> 100 µM (inactive)	> 100 µM (inactive)	> 100 µM (inactive)	93.5 µM (inactive)	> 100 µM (inactive)	> 100 µM (inactive)	> 100 µM (inactive)	> 100 µM (inactive)	> 100 µM (inactive)	> 100 µM (inactive)	> 100 µM (inactive)
CCN(CC)c1ccc(/C=C(\C#N)c2nc(N)nc(N3N=C(C)CC3(C)C)n2)cc1	14 µM (inactive)	13.1 µM (inactive)	2.4 µM (inactive)	32 µM (inactive)	47.4 µM (inactive)	17.9 µM (inactive)	10.6 µM (inactive)	43.7 µM (inactive)	16.9 µM (inactive)	13.3 µM (inactive)	13.4 µM (inactive)	22.4 µM (inactive)	24.4 µM (inactive)	15.9 µM (inactive)	27.5 µM (inactive)	29.6 µM (inactive)	15.8 µM (inactive)	11.6 µM (inactive)	19.2 µM (inactive)
Cc1c2cccc(Sc3ccccc3)c2c2c3c(cccc13)[S+](c1ccccc1)C2 (stereo unspecified)	1.72 µM (inactive)	1.16 µM (inactive)	2.74 µM (inactive)	1.33 µM (inactive)	2.14 µM (inactive)	1.73 µM (inactive)	2.67 µM (inactive)	0.935 µM (active)	0.684 µM (active)	1.5 µM (inactive)	2.98 µM (inactive)	2.95 µM (inactive)	2.71 µM (inactive)	2.06 µM (inactive)	1.82 µM (inactive)	0.923 µM (active)	28.6 µM (inactive)	1.98 µM (inactive)	2.08 µM (inactive)
Cc1cc(C)n2nc3nc(N)c(C#N)c(-c4ccccc4)c3c2n1	> 100 µM (inactive)	> 100 µM (inactive)	> 100 µM (inactive)	> 100 µM (inactive)	> 100 µM (inactive)	> 100 µM (inactive)	> 100 µM (inactive)	> 100 µM (inactive)	> 100 µM (inactive)	> 100 µM (inactive)	> 100 µM (inactive)	> 100 µM (inactive)	> 100 µM (inactive)	> 100 µM (inactive)	> 100 µM (inactive)	> 100 µM (inactive)	> 100 µM (inactive)	> 100 µM (inactive)	> 100 µM (inactive)
N#Cc1nc2ccccc2nc1N1CCN(c2ccc([N+](=O)[O-])cc2)CC1	> 100 µM (inactive)	> 100 µM (inactive)	> 100 µM (inactive)	> 100 µM (inactive)	> 100 µM (inactive)	> 100 µM (inactive)	> 100 µM (inactive)	> 100 µM (inactive)	> 100 µM (inactive)	> 100 µM (inactive)	> 100 µM (inactive)	> 100 µM (inactive)	> 100 µM (inactive)	> 100 µM (inactive)	> 100 µM (inactive)	> 100 µM (inactive)	> 100 µM (inactive)	> 100 µM (inactive)	> 100 µM (inactive)
